The values below come from article PMC13110267, “Fair and Square: Design, Synthesis and Biological Evaluations of Squaric Acid Derivatives as Novel HDAC8 Inhibitors” (Chemmedchem, 2026).

Some results are limits rather than exact numbers.

Common to all, as to format: biochemical
One experiment deals with T1, HDAC6 (Homo sapiens, UniProt Q9UBN7).
T1 construct: purchased BPS Bioscience 50006
T1 sequence (Q9UBN7 1-1215): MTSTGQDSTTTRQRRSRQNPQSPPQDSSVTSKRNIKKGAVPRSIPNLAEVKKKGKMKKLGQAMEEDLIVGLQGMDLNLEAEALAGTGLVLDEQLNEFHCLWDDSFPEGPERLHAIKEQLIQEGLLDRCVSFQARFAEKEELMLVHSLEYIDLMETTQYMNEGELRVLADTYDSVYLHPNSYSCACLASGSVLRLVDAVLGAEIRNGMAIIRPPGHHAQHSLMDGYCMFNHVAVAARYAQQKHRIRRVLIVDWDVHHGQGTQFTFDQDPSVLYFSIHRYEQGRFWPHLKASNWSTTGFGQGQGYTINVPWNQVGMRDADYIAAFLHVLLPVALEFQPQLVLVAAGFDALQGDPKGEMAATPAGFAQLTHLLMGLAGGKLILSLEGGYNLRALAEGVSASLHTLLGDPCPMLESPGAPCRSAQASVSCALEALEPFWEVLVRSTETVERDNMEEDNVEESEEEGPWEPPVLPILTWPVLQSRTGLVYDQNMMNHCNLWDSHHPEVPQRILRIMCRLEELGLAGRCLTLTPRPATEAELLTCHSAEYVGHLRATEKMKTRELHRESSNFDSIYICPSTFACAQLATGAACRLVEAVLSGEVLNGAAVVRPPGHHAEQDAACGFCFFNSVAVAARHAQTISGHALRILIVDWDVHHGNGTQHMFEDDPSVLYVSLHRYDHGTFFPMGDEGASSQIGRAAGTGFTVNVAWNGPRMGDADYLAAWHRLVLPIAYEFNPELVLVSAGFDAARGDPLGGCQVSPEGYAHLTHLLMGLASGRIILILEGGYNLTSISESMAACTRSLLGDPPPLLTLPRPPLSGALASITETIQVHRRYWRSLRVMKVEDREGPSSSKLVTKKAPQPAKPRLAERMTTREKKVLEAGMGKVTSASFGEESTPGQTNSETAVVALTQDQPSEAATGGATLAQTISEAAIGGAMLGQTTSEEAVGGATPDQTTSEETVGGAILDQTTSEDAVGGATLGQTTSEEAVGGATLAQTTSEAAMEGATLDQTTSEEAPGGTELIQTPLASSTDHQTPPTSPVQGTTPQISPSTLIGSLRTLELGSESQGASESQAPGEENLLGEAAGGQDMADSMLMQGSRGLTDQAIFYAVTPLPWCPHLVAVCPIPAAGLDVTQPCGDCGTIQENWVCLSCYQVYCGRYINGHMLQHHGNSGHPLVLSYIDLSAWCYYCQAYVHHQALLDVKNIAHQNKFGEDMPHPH
The experiment is described as follows: HDAC6 fluorometric enzyme inhibition assay, purified enzyme. As to conditions: Table 2; purified enzyme ~1 nM. As to the method:
(§1) Therefore, the first stage of biological evaluation focused on determining inhibitory concentration (IC50) values of the squaric acid derivatives against HDAC8 and HDAC4 using purified recombinant enzymes. Enzymatic inhibition was quantified using 10‐point dose–response assays, from which IC50 values were calculated (Table 1). HDAC8 and HDAC4 were employed at concentrations of 10 nM and 1 nM, respectively, while other zinc‐dependent HDAC isoenzymes were used at approximate concentrations of ∼1 nM, reflecting the purity of the commercially available preparations. […]
(§2) 1.3.1 HDAC Assay General Inform ation
(§3) The activity of HDAC1, HDAC4, HDAC6, HDAC8, and HDAC11 was determined using a fluorometric assay in black half-area 96-well microplates (Greiner Bio -One , Germany). HDAC1 (#50051) and HDAC 6 (#50006) were purchased from BPS Bioscience.
(§4) HDAC4, HDAC8 and HDAC11 were produced in house as previously described.7- 9 The enzymes were pre-incubated with serial dilutions of the compounds for 1 hour at 30 °C in either assay buffer (25 mM Tris-HCl, 75 mM KCl and 0.001% (v/v) Pluronic F -127, pH 8.0) or MAL buffer (137 m M NaCl, 50 mM Tris-HCl, 2.7 mM KCl, 1 mM MgCl₂, 0 .5 mg/ml bovine serum albumin (BSA), pH 8.0b) for HDAC11. The enzyme reaction was initiated by the addition of the following substrates: 20 µM Boc-L ys(T FA) -AMC for HDAC4 and HDAC8; 80 µM Boc-L ys(T FA) -AMC for HDAC11; and 50 µM Boc -Lys(Ac)-AMC for HDAC1 and HDAC6. After an incubation period of 60 minutes, the reaction was terminated by the addition of 1.7 µM 9,9,9-trifluoro-8-oxo-N -phenyl -nonanamide (SATFMK) for […]
(§5) HDAC6, and 1 µM 1,1-dimethyl -2-[5-(trifluoromethyl)pyrazin-2-yl]isoindoline -4-carbohydroxamic acid (FT895) for HDAC11. The deacetylated substrate was then cleaved into fluorescent 7-amino -4- methylcoumarin (AMC) by the addition of 0.42 mg/mL trypsin.
(§6) Measurements were performed using a PHERAstar FS fluorescence microplate reader (BMG LABTECH) with excitation at 360 nm and emission at 460 nm. The normalised enzyme activities were plotted against the respective ligand concentration and fitted with a four-parameter logistic function using GraphPad Prism 6 software.

The next experiment has as its target T2, HDAC1 (Homo sapiens, UniProt Q13547).
T2 construct: purchased BPS Bioscience 50051
The experiment is described as follows: HDAC1 fluorometric enzyme inhibition assay, purified enzyme. As to conditions: Table 2; purified enzyme ~1 nM. The procedure:
as §1, §2, §3, §4, §5, §6

The next experiment addresses T3, HDAC11 (Homo sapiens, UniProt Q96DB2).
T3 construct: made in house
T3 sequence (Q96DB2 1-347): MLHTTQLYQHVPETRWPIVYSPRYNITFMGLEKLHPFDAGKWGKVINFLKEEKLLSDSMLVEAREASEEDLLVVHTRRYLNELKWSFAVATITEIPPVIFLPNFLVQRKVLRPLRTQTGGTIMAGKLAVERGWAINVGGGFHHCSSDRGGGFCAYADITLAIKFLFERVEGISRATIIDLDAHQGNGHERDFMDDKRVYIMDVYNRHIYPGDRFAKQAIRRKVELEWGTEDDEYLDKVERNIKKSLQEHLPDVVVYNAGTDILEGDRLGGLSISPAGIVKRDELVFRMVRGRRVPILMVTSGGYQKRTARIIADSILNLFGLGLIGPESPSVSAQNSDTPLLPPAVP
The experiment is described as follows: HDAC11 fluorometric enzyme inhibition assay, purified enzyme. As to conditions: Table 2; purified enzyme ~1 nM. As to the method:
as §1, §2, §3, §4, §5, §6

For the next experiment, the target named is T4, HDAC4 (Homo sapiens, UniProt P56524).
T4 construct: made in house
As to the kind of experiment: HDAC4 fluorometric enzyme inhibition assay, purified recombinant enzyme, 10-point dose-response. As to conditions: Table 1; purified recombinant HDAC4 1 nM; mean of three independent experiments; >35 µM = weak inhibitor. As to the method: as §1, §2, §3, §4, §5, §6

Another experiment deals with T5, HDAC8 (Homo sapiens, UniProt Q9BY41).
T5 construct: made in house
T5 sequence (Q9BY41 1-377): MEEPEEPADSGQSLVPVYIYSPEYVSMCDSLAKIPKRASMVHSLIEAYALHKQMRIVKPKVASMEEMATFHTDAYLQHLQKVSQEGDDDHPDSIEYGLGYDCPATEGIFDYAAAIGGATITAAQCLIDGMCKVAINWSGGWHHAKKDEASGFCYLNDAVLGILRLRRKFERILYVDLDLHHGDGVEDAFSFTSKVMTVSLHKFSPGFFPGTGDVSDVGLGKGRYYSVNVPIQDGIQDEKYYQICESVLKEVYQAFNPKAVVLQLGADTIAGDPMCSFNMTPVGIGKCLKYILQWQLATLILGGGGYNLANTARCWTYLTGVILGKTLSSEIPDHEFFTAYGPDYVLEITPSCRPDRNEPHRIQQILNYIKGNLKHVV
As to the kind of experiment: HDAC8 fluorometric enzyme inhibition assay, purified recombinant enzyme, 10-point dose-response. As to conditions: for IC50: Table 1, purified recombinant HDAC8 10 nM, mean of three independent experiments, >35 µM = weak inhibitor; for IC50 (HDAC4)/IC50 (HDAC8): selectivity ratio HDAC8 over HDAC4. The procedure:
as §1, §2, §3, §4, §5, §6

T4 sequence (P56524 whole entry): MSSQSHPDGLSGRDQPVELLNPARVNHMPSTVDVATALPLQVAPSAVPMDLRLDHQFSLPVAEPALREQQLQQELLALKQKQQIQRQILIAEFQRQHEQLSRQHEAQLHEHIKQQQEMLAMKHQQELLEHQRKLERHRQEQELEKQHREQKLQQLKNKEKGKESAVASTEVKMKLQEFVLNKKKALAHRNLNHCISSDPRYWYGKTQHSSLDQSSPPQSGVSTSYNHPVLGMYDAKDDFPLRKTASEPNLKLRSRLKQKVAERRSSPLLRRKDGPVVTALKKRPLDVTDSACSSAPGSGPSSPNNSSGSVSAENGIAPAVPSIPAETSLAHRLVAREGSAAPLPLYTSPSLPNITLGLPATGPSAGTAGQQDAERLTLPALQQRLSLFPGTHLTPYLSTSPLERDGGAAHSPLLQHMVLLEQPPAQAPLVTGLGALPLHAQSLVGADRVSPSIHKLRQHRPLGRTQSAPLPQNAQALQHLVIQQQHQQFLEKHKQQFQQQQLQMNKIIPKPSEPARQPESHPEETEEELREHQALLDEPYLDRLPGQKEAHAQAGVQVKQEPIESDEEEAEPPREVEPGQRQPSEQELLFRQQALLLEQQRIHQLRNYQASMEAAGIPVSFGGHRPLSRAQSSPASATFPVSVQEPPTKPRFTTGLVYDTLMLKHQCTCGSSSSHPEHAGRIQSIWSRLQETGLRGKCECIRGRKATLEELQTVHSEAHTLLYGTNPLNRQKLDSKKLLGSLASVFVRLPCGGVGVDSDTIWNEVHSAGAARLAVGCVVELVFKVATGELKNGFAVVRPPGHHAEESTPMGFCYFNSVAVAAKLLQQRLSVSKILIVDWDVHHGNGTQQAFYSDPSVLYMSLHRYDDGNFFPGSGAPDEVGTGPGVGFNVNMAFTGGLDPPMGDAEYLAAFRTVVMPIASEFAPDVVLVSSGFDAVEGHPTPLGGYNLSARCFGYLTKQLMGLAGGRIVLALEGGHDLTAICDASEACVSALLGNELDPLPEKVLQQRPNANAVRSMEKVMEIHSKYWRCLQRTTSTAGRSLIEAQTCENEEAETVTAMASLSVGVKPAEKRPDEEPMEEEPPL
T2 sequence (Q13547 whole entry): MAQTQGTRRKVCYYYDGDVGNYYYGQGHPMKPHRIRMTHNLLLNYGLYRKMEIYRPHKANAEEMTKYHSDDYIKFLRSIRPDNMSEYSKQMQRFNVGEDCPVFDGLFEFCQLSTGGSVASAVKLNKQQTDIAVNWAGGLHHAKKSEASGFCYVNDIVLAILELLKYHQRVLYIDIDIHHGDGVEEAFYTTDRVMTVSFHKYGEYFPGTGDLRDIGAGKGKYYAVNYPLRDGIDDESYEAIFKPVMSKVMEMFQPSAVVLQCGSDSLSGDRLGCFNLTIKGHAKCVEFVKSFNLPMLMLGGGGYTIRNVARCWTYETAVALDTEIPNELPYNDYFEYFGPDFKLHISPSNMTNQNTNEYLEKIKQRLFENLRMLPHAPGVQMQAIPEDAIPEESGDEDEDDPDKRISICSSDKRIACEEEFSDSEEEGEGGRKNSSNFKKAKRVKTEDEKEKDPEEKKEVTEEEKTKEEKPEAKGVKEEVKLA

Take `O=c1c(Nc2ccc(Br)cc2)c(Nc2ccc(Br)cc2)c1=O` [Compound 13c]: the IC50 (in general, the point on the concentration scale where inhibition reaches its midpoint) was 2.9 ± 1.3 µM on HDAC6; 8.1 ± 4.3 µM against HDAC1; above 35 µM on HDAC11; 11 ± 4 µM at HDAC4; 2000 ± 1000 nM at HDAC8. The “IC50 (HDAC4)/IC50 (HDAC8)” value on HDAC8 is 5.5.

Turning to `CN(Cc1ccccc1)c1c(N(C)Cc2ccccc2)c(=O)c1=O` [Compound 14b], the IC50 against HDAC6 was 6.9 ± 2.5 µM; against HDAC1, 17 ± 16 µM; on HDAC11, above 35 µM; at HDAC4, 14 ± 3 µM; on HDAC8, 1300 ± 200 nM. Also, at HDAC8, the “IC50 (HDAC4)/IC50 (HDAC8)” value is 10.8.

For `CCOc1c(Nc2ccc(F)cc2)c(=O)c1=O` [Compound 9b], the IC50 stood at 2.3 ± 1.6 µM on HDAC6; 7 ± 2.7 µM against HDAC1; 25 ± 8 µM against HDAC11; 8.5 ± 5.3 µM on HDAC4; 1200 ± 30 nM at HDAC8. Also, on HDAC8, the “IC50 (HDAC4)/IC50 (HDAC8)” value turned out to be 7.1.

For the molecule `O=c1c(NCc2ccccc2)c(NCc2ccccc2)c1=O` [Compound 13b], the IC50 against HDAC6 was 6.1 ± 3.5 µM; against HDAC1, 8.3 ± 3.6 µM; against HDAC11, above 35 µM; at HDAC4, 4.6 ± 0.9 µM; at HDAC8, 1800 ± 700 nM. The “IC50 (HDAC4)/IC50 (HDAC8)” value on HDAC8 came out at 2.6.
